{
  "source": "patent US20180049996A1",
  "about": "“THERAPEUTIC AGENT FOR CHRONIC RESPIRATORY DISEASE AND COMPOSITION FOR INHIBITING CARDIAC FIBROSIS” (NIPPON HYPOX LABORATORIES INCORPORATED, priority 2015, published 2018)",
  "key": {"sputum excretion": {"system": "sputum excretion", "assay": "Sputum excretion action (phenol red excretion from trachea sections, method of Engler et al.)", "assay_type": "in vivo, male ICR mice", "settings": "ambroxol 250 mg/kg oral single dose; relative to negative control; significant increase", "procedure": "The hydroquinone derivative of the present invention was orally administered to 8 week old male ICR mice in a single dose, and the sputum excretion action was evaluated according to the method of Engler et al. (Engler H, Szelenyi I, J.Pharmacol. Moth. 11, 151-157, 1984).\nSpecifically, the test was conducted as follows. The test material was orally administered to the mice in the control group and the test groups, i.e., an aqueous solution of 2% gum arabic was administered to the mice in the negative control group, and 2,3,5-trimethylhydroquinone-1-hexyl ether (HTHQ), the test substance, was orally administered to the mice in the HTHQ-administered groups at 100 mg/kg body weight, 200 mg/kg body weight and 400 mg/kg body weight, respectively. Ambroxol (a product from Sigma-Aldrich) was orally administered to the mice in the ambroxol administered group at 250 mg/kg body weight. Here, ambroxol is a substance having expectoration action and has been selected as a positive control substance. 30 minutes after the oral administration of the test material, saline in which phenol red (a product from Sigma-Aldrich) was dissolved at a concentration of 0.05 g/mL was intraperitoneally administered at 15 mL/kg. Then, 30 minutes after the administration of phenol red, the mice were euthanized by inhalation of carbon dioxide, and the tracheae were extirpated. Given sites of the extirpated tracheae were cut into sections of fixed size to obtain trachea sections. The obtained trachea sections were added to centrifugation tubes, and 1 mL of saline was added there, and the mixture was sonicated using a ultrasonic washing machine for 15 minutes. After the centrifugation of 5 minutes at 10000 rpm, 0.5 mL of a upper layer solution was dispensed to the centrifugation tubes and 0.05 mL of 1 N sodium hydroxide was added to the tubes. After stirring with a vortex mixer, 0.2 mL of a sample was dispensed to a 96 well plate, and absorbance was measured at 546 nm using a micro plate reader (a product from BioTek Instruments, Inc). The amounts of phenol red excreted from the trachea sections of the mice in the control group and test groups were calculated by extrapolating the measured absorbance to the standard curve based on the absorbance of phenol red reference standard ([…], 2.3 and 1.2 ng/mL). The amounts of phenol red excreted from the trachea sections were substituted in the following formula to calculate the sputum excretion ability of the test material. The formula to calculate the sputum excretion ability is as follows: “sputum excretion ability(%)={(A/B)−1}×100” wherein A is the amounts of phenol red of the test material administered groups (an average) and B is the amount of phenol red of the negative control group (an average)."}, "[1]": {"system": "Pulmonary Fibrosis Induced by Bleomycin", "assay": "Body weight and relative weight of lungs, pulmonary fibrosis induced by bleomycin", "assay_type": "in vivo, male SD rats", "procedure": "(§1) Bleomycin is used to produce disease-model animals of interstitial pneumonia. The bleomycin and 2,3,5-trimethylhydroquinone-1-hexyl ether (HTHQ) as the hydroquinone derivative represented by the general formula (1) described above of the present invention were simultaneously administered to male SD rats of 10 week old after birth to examine the effect of the action. The test groups consisted of the control group to which sterile saline was administered; test group 1 to which bleomycin (7.5 mg/kg body weight) alone was administered; test group 2 to which bleomycin (7.5 mg/kg body weight) and HTHQ (50 mg/kg body weight/day) were administered in combination; and test group 3 to which bleomycin (7.5 mg/kg body weight) and HTHQ (200 mg/kg body weight/day) were administered in combination.\n(§2) In test groups 1 to 3, bleomycin was orally administered in a single dose. In test groups 2 and 3, 2,3,5-trimethylhydroquinone-1-hexyl ether (HTHQ) was daily orally administered for 10 or 20 days starting from 24 h after the administration of bleomycin. In test group 1, olive oil, which was used as a solvent of HTHQ, was daily orally administered at 10 mL/kg/day starting from 24 h after the administration of bleomycin. The number of animals in each group was 16. 8 animals of each group were sacrificed on days 10 and 20 after the administration of bleomycin and measurement of body weight, lung autopsy, histopathologic examination of lungs and bronchoalveolar lavage examination were conducted.\nThe body weight of the rats in the control group increased over time during the test period. […] The weight of the interstitial tissue of lungs tends to increase and the relative weight of lungs tends to rise when the tissue fibroses. […] Thus, it was expected that the degree of the progression of pulmonary fibrosis of the rats in test groups 2 and 3, to which HTHQ was administered, was less than the rats in test group 1."}, "[2]": {"system": "Pulmonary Fibrosis Induced by Bleomycin", "assay": "Gross pathology of lungs, pulmonary fibrosis induced by bleomycin", "assay_type": "in vivo, male SD rats", "settings": "Test group 1: bleomycin 7.5 mg/kg alone; day 20", "procedure": "as §1\nas §2, with “8 animals of each group were sacrificed on days 10 and 20 after the administration of bleomycin and measurement of body weight, lung autopsy, histopathologic examination of lungs and bronchoalveolar lavage examination were conducted.” left out"}, "[3]": {"system": "Pulmonary Fibrosis Induced by Bleomycin", "assay": "Histopathologic examination of lungs, pulmonary fibrosis induced by bleomycin", "assay_type": "in vivo, male SD rats", "settings": "Test group 1: bleomycin 7.5 mg/kg alone", "procedure": "as §1, §2\nThe main lung lesions observed in the rats in test group 1 (the bleomycin-single administration group) on day 10 after the administration were the peribronchial and peribronchiola enlargement of alveoli, the hyperplasia of the alveolar wall, the infiltration of monocytes and lymphocytes in alveolar walls and interstitial tissue, and the exudation of alveolar macrophage into alveolar spaces. These lesions were alleviated in rats in test groups 2 and 3 (the HTHQ-administered groups) compared to the tissue in test group 1.\nThe result of the histopathologic examination of lungs of the control group and the test groups on day 20 after the administration of bleomycin is shown in Table 1 below. “−” indicates “not found”, “+” indicates “mild”, “++” indicates “moderate”, and “+++” indicates “severe” in severity scores. In test group 1 (the bleomycin-single administration group), the hyperplasia and fibrosis of peribronchial and adjacent alveolar walls became remarkable compared to the tissue on day 10 after the administration and the morphology of alveolus almost disappeared due to the infiltration of lymphocytes and neutrophils. The alveolar macrophages infiltrated within alveolar spaces were buried in surrounding tissues."}, "[4]": {"system": "Pulmonary Fibrosis Induced by Bleomycin", "assay": "Bronchoalveolar lavage (BAL) examination, cell numbers, pulmonary fibrosis induced by bleomycin", "assay_type": "in vivo, male SD rats", "procedure": "as §1, §2\nBronchoalveolar lavage (BAL) examination was conducted on the rats in the control group and the test groups. When interstitial pneumonia developed, the infiltration of inflammatory cells occurs and thus the total cell number in BAL fluid increases. The total cell numbers on day 10 after the administration of bleomycin were as follows: 2×10^5 cells in the control group, 9×10^5 cells in test group 1 (the bleomycin-single administration group), 6.5×10^5 cells in test group 2 (the low-dose HTHQ-administered group, 50 mg/kg body weight), and 10.5×10^5 cells in test group 3 (the high-dose HTHQ-administered group, 200 mg/kg body weight), and thus the effect of HTHQ administration was not found on day 10 after the administration of bleomycin.\nWhen interstitial pneumonia developed, the infiltration of alveolar macrophages to interstitial tissue occurs and thus the alveolar macrophage number in BAL fluid increases. The alveolar macrophage numbers on day 10 after the administration of bleomycin were as follows: 1.45×10^5 cells in the control group, 4.5×10^5 cells in test group 1 (the bleomycin-single administration group), 1.99×10^5 cells in test group 2 (the low-dose HTHQ-administered group), and 3.24×10^5 cells in test group 3 (the high-dose HTHQ-administered group), and thus the effect of HTHQ administration was not found on day 10 after the administration of bleomycin. However, on day 20 after the administration, while the alveolar macrophage number of the bleomycin-single administration group was 5.5×10^5 cells, the alveolar macrophage number of the low-dose HTHQ-administered group was 3×10^5 cells and the alveolar macrophage number of the high-dose HTHQ-administered group was decreased to 2×10^5 cells.\nWhen interstitial pneumonia developed, the infiltration of inflammatory cells of neutrophils to interstitial tissue occurs and thus the neutrophil number in BAL fluid increases. The neutrophil numbers on day 10 after the administration of bleomycin were as follows: 1.04×10^4 cells in the control group, 2.28×10^5 cells in test group 1 (the bleomycin-single administration group), 1.44×10^5 cells in test group 2 (the low-dose HTHQ-administered group), and 5.83×10^5 cells in test group 3 (the high-dose HTHQ-administered group), and thus the effect of HTHQ was not found on day 10 after the administration of bleomycin. […]"}, "[5]": {"settings": "Test group 1: bleomycin 7.5 mg/kg alone, day 10"}, "[6]": {"settings": "bleomycin 7.5 mg/kg alone, day 20"}},
  "data": [
    {"molecule": "Nc1c(Br)cc(Br)cc1CN[C@H]1CC[C@H](O)CC1", "note": "[ambroxol, Ambroxol, reference compound]", "values": [
      {"measurement": "sputum excretion ability", "setting": "sputum excretion", "result": 41.1, "unit": "%"}
    ]},
    {"molecule": "bleomycin [reference compound]", "values": [
      {"measurement": "body weight", "setting": "[1]; test groups 1 to 3, bleomycin 7.5 mg/kg single dose, during the test period", "result": "gradually decreased"},
      {"measurement": "relative weight of lungs", "setting": "[1]; test groups 1 to 3, bleomycin 7.5 mg/kg, compared to the control group, p<0.01", "result": "significantly increased"},
      {"measurement": "gross pathology of lungs", "setting": "[2]", "result": "delomorphous nodules as well as many dark red and light red ecchymoses were observed"},
      {"measurement": "histopathologic findings of lungs", "setting": "[3]; day 10", "result": "pulmonary fibrosis has progressed"},
      {"measurement": "Severity score: Alveolar space, Bleeding", "setting": "[3]; day 20 after bleomycin", "result": "+"},
      {"measurement": "Severity score: Alveolar space, Macrophage accumulation", "setting": "[3]; day 20 after bleomycin", "result": "+++"},
      {"measurement": "Severity score: Alveolar space, Protein exudation", "setting": "[3]; day 20 after bleomycin", "result": "+++"},
      {"measurement": "Severity score: Alveolar wall, Fibroblast accumulation", "setting": "[3]; day 20 after bleomycin", "result": "+++"},
      {"measurement": "Severity score: Alveolar wall, Fibrosis of interstitial tissue", "setting": "[3]; day 20 after bleomycin", "result": "+++"},
      {"measurement": "Severity score: Alveolar wall, Interstitial edema", "setting": "[3]; day 20 after bleomycin", "result": "+"},
      {"measurement": "Severity score: Alveolar wall, Mononuclear cell infiltration", "setting": "[3]; day 20 after bleomycin", "result": "+++"},
      {"measurement": "Severity score: Circumvascular region, Perivascular edema", "setting": "[3]; day 20 after bleomycin", "result": "+"},
      {"measurement": "Severity score: Circumvascular region, Plasma cell infiltration", "setting": "[3]; day 20 after bleomycin", "result": "+"},
      {"measurement": "Severity score: Peribronchial and peribronchiolar regions, Fibrosis of interstitial tissue", "setting": "[3]; day 20 after bleomycin", "result": "+++"},
      {"measurement": "Severity score: Peribronchial and peribronchiolar regions, Lymphoid follicle hyperplasia", "setting": "[3]; day 20 after bleomycin", "result": "++"},
      {"measurement": "Severity score: Type II alveolar epithelial cell, Adenomatous hyperplasia", "setting": "[3]; day 20 after bleomycin", "result": "++"},
      {"measurement": "Severity score: Type II alveolar epithelial cell, Atypia and dysplasia", "setting": "[3]; day 20 after bleomycin", "result": "++"},
      {"measurement": "alveolar macrophage number in BAL fluid", "setting": "[4]; [5]", "result": "4.5×10^5 cells"},
      {"measurement": "lymphocyte number in BAL fluid", "setting": "[4]; [5]", "result": "2.72×10^5 cells"},
      {"measurement": "neutrophil number in BAL fluid", "setting": "[4]; [5]", "result": "2.28×10^5 cells"},
      {"measurement": "total cell number in BAL fluid", "setting": "[4]; [5]", "result": "9×10^5 cells"},
      {"measurement": "alveolar macrophage number in BAL fluid", "setting": "[4]; [6]", "result": "5.5×10^5 cells"},
      {"measurement": "lymphocyte number in BAL fluid", "setting": "[4]; [6]", "result": "2.09×10^5 cells"},
      {"measurement": "neutrophil number in BAL fluid", "setting": "[4]; [6]", "result": "4.97×10^5 cells"},
      {"measurement": "total cell number in BAL fluid", "setting": "[4]; [6]", "result": "12.8×10^5 cells"}
    ]}
  ]
}
